This note sets out measurements from US7659293B2, “α-Amino-N-hydroxy-acetamide derivatives” (Novartis AG, priority 2001, dated 2010).

The assay has as its target T1, MT1-MMP (Homo sapiens, UniProt P50281).
T1 construct: initiator Met (ATG start codon from NdeI site) (N); made in house
Nature of the assay: MT1-MMP fluorogenic substrate inhibition assay. The conditions noted are these: mean ± SEM of three independent experiments. The format is biochemical. On the procedure:
The inhibitory activities of compounds of formula I on MT1-MMP, MMP1 (collagenase 1) and MMP2 (gelatinase A) can be determined as follows:
Stock solutions of substrate (MCA-Pro-Leu-Gly-Leu-Dpa-Ala-Arg-NH2 (SEQ ID NO: 1), C. G. Knight, et al, FEBS lett., 296, 263-266, (1992)), are prepared in 100% DMSO at a concentration 1.0 mM.
Stock solutions of inhibitors are prepared in 100% DMSO. The inhibitor is diluted into the assays from a solution in 100% DMSO, and controls substitute an equal volume of DMSO so that the final DMSO concentration from inhibitor and substrate dilutions in all assays is 6.0%. Assays are performed in assay buffer (150 mM NaCl, 10 mM CaCl2, 50 mM Tris-Cl pH7.5, 0.05% Brij-35) containing 6.0% DMSO once the substrate and inhibitor are diluted into it. […] The fluorescence changes are monitored using an excitation wavelength of 320 nm and an emission wavelength of 340 nm. […] The reaction mixture is preincubated with the inhibitor for 30 min, the reaction is started by the addition of MMP enzyme and the fluorescence intensity is measured for 10 min. […]
Expression and Purification: The subcloned CD-MT1-MMP is used to transfect E. coli strain BL21[DE3] (Hanahan, D. J. Mol. Biol. 1983; 166(4):557-80) and expressed as insoluble inclusion body materials. […] Fractions of 1 ml are collected and […] aliquots are analyzed by immunoblotting. […]

Molecules are shown by their SMILES. Counter-ions that a name gives are not always drawn.

`CN(C)c1ccc(CN(CC(=O)NO)S(=O)(=O)c2ccc(OCC3CC3)cc2)cc1` [Example 2, 2-[(4-Cyclopropylmethoxy-benzenesulfonyl)-(4-dimethylamino-benzyl-amino]-N-hydroxy-acetamide HCl salt] registered an IC50 of 4.67 ± 0.17 nM.

The IC50 is the point on the concentration scale where inhibition reaches its midpoint.
